From patent publication US12528791B2 (priority 2019, dated 2026)

Legend:
[1] = target: T1, TR beta-LBD (Homo sapiens, UniProt P10828); format: biochemical; conditions: TR-FRET assay; THR beta over THR alpha, derived from T3-selectivity normalized data
T1 sequence (P10828 217-461 limits assumed): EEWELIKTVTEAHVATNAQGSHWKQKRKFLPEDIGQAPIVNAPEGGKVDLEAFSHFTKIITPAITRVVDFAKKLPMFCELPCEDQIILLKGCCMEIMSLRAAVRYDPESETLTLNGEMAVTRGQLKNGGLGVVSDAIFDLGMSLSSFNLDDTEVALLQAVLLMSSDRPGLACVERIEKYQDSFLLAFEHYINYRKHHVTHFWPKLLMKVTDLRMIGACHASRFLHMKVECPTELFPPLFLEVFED

[2] = target: T2, THR-β/RXR-α (Homo sapiens, UniProt P10828); format: biochemical; conditions: RXR heterodimer assay; compound activity normalized to T3 for THR-β/RXR-α and THR-α/RXR-α
T2 sequence (P10828 202-461 limits assumed): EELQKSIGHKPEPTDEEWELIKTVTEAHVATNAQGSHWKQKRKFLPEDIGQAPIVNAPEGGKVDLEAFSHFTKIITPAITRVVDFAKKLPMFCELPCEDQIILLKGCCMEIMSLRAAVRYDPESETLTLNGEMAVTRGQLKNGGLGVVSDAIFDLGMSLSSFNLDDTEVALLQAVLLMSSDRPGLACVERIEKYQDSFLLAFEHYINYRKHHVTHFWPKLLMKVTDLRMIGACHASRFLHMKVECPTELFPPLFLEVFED
T2 sequence (P19793 225-462 partner limits assumed): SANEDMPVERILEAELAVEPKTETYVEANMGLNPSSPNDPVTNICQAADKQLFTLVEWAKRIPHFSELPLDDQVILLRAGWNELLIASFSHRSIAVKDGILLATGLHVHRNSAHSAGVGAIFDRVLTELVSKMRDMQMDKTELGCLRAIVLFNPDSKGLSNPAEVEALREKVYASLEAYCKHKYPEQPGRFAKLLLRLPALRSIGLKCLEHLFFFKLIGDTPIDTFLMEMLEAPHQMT
T2 sequence (Q15596 679-703 partner limits assumed): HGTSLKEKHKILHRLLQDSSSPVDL

Row | SMILES | THRβ-Selectivity [1] | THRβ-Selectivity [2]
1 | CCc1n[nH]c2ccc(Oc3c(Cl)cc(-c4n[nH]c(=O)[nH]c4=O)cc3Cl)cc12 [Example 2, 6-(3,5-dichloro-4-((3-ethyl-1H-indazol-5-yl)oxy)phenyl)-1,2,4-triazine-3,5(2H,4H)-dione] | 28.0 | 3.6
2 | Cc1n[nH]c2ccc(Oc3c(Cl)cc(-n4nc(C#N)c(=O)[nH]c4=O)cc3Cl)cc12 [Example 3, 2-(3,5-dichloro-4-((3-methyl-1H-indazol-5-yl)oxy)phenyl)-3,5-dioxo-2,3,4,5-tetrahydro-1,2,4-triazine-6-carbonitrile] | 32.0 | 8.5
3 | Cc1n[nH]c2ccc(Oc3c(Cl)cc(NC(=O)c4noc(=O)[nH]4)cc3Cl)cc12 [Example 4, N-(3,5-dichloro-4-((3-methyl-1H-indazol-5-yl)oxy)phenyl)-5-oxo-4,5-dihydro-1,2,4-oxadiazole-3-carboxamide] | 18.8 | 6.6
4 | Cc1n[nH]c2ccc(Oc3c(Cl)cc(-c4n[nH]c(=O)[nH]c4=O)cc3Cl)cc12 [Example 5, 6-(3,5-dichloro-4-((3-methyl-1H-indazol-5-yl)oxy)phenyl)-1,2,4-triazine-3,5(2H,4H)-dione] | 15.6 | 3.1
5 | Cc1n[nH]c2ncc(Oc3c(Cl)cc(NC(=O)c4noc(=O)[nH]4)cc3Cl)cc12 [Example 6, N-(3,5-dichloro-4-((3-methyl-1H-pyrazolo[3,4-b]pyridin-5-yl)oxy)phenyl)-5-oxo-4,5-dihydro-1,2,4-oxadiazole-3-carboxamide] | >18.5 | 5.6
6 | Cc1n[nH]c2ncc(Oc3c(Cl)cc(-n4nc(C#N)c(=O)[nH]c4=O)cc3Cl)cc12 [Example 7, 2-(3,5-dichloro-4-((3-methyl-1H-pyrazolo[3,4-b]pyridin-5-yl)oxy)phenyl)-3,5-dioxo-2,3,4,5-tetrahydro-1,2,4-triazine-6-carbonitrile] | 9.5 | 9.7
7 | COc1n[nH]c2ccc(Oc3c(Cl)cc(-n4nc(C#N)c(=O)[nH]c4=O)cc3Cl)cc12 [Example 9, 2-(3,5-dichloro-4-((3-methoxy-1H-indazol-5-yl)oxy)phenyl)-3,5-dioxo-2,3,4,5-tetrahydro-1,2,4-triazine-6-carbonitrile] | 8.0 | 10.3
8 | Cn1cnc2cnc(Oc3c(Cl)cc(NC(=O)c4noc(=O)[nH]4)cc3Cl)cc21 [Example 11, N-(3,5-dichloro-4-((1-methyl-1H-imidazo[4,5-c]pyridin-6-yl)oxy)phenyl)-5-oxo-4,5-dihydro-1,2,4-oxadiazole-3-carboxamide] | >30.5 | 10.4
9 | N#Cc1nn(-c2cc(Cl)c(Oc3ccc4ncccc4c3)c(Cl)c2)c(=O)[nH]c1=O [Example 13, 2-(3,5-dichloro-4-(quinolin-6-yloxy)phenyl)-3,5-dioxo-2,3,4,5-tetrahydro-1,2,4-triazine-6-carbonitrile] | 3.7 | 5.5
10 | Cc1ccnc2ccc(Oc3c(Cl)cc(-n4nc(C#N)c(=O)[nH]c4=O)cc3Cl)cc12 [Example 15, 2-(3,5-dichloro-4-((4-methylquinolin-6-yl)oxy)phenyl)-3,5-dioxo-2,3,4,5-tetrahydro-1,2,4-triazine-6-carbonitrile] | 15.9 | 15.4
11 | Cc1cnc2ccc(Oc3c(Cl)cc(-n4nc(C#N)c(=O)[nH]c4=O)cc3Cl)cc2c1 [Example 16, 2-(3,5-dichloro-4-((3-methylquinolin-6-yl)oxy)phenyl)-3,5-dioxo-2,3,4,5-tetrahydro-1,2,4-triazine-6-carbonitrile] | 68.1 | 7.1
12 | Cn1cc2cc(Oc3c(Cl)cc(-n4nc(C#N)c(=O)[nH]c4=O)cc3Cl)ccc2n1 [Example 17, 2-(3,5-dichloro-4-((2-methyl-2H-indazol-5-yl)oxy)phenyl)-3,5-dioxo-2,3,4,5-tetrahydro-1,2,4-triazine-6-carbonitrile] | 2.2 | 6.3
13 | Cn1cnc2ccc(Oc3c(Cl)cc(-n4nc(C#N)c(=O)[nH]c4=O)cc3Cl)cc21 [Example 19, 2-(3,5-dichloro-4-((1-methyl-1H-benzo[d]imidazol-6-yl)oxy)phenyl)-3,5-dioxo-2,3,4,5-tetrahydro-1,2,4-triazine-6-carbonitrile] | 38.0 | 5.6
14 | CC(C)n1cnc2ccc(Oc3c(Cl)cc(NC(=O)c4noc(=O)[nH]4)cc3Cl)cc21 [Example 20, N-(3,5-dichloro-4-((1-isopropyl-1H-benzo[d]imidazol-6-yl)oxy)phenyl)-5-oxo-4,5-dihydro-1,2,4-oxadiazole-3-carboxamide] | 348.9 | 11.3
15 | CC(C)n1cnc2ccc(Oc3c(Cl)cc(-n4nc(C#N)c(=O)[nH]c4=O)cc3Cl)cc21 [Example 21, 2-(3,5-dichloro-4-((1-isopropyl-1H-benzo[d]imidazol-6-yl)oxy)phenyl)-3,5-dioxo-2,3,4,5-tetrahydro-1,2,4-triazine-6-carbonitrile] | 12.9 | 10.9
16 | O=C(Nc1cc(Cl)c(Oc2ccc3ncn(C4CC4)c3c2)c(Cl)c1)c1noc(=O)[nH]1 [Example 22, N-(3,5-dichloro-4-((1-cyclopropyl-1H-benzo[d]imidazol-6-yl)oxy)phenyl)-5-oxo-4,5-dihydro-1,2,4-oxadiazole-3-carboxamide] | >253.0 | 5.9
17 | N#Cc1nn(-c2cc(Cl)c(Oc3ccc4ncn(C5CC5)c4c3)c(Cl)c2)c(=O)[nH]c1=O [Example 23, 2-(3,5-dichloro-4-((1-cyclopropyl-1H-benzo[d]imidazol-6-yl)oxy)phenyl)-3,5-dioxo-2,3,4,5-tetrahydro-1,2,4-triazine-6-carbonitrile] | 20.2 | 5.7
18 | O=C(Nc1cc(Cl)c(Oc2ccc3nc(C4CC4)ccc3c2)c(Cl)c1)c1noc(=O)[nH]1 [Example 24, N-(3,5-dichloro-4-((2-cyclopropylquinolin-6-yl)oxy)phenyl)-5-oxo-4,5-dihydro-1,2,4-oxadiazole-3-carboxamide] | 8.1 | 4.8
19 | Cc1ccnc2ccc(Oc3c(Cl)cc(NC(=O)c4noc(=O)[nH]4)cc3Cl)cc12 [Example 25, N-(3,5-dichloro-4-((4-methylquinolin-6-yl)oxy)phenyl)-5-oxo-4,5-dihydro-1,2,4-oxadiazole-3-carboxamide] | 1286.7 | 5.7
20 | O=C(Nc1cc(Cl)c(Oc2ccc3ncn(C4(C(F)(F)F)CC4)c3c2)c(Cl)c1)c1noc(=O)[nH]1 [Example 53, N-(3,5-dichloro-4-((1-(1-(trifluoromethyl)cyclopropyl)-1H-benzo[d]imidazol-6-yl)oxy)phenyl)-5-oxo-4,5-dihydro-1,2,4-oxadiazole-3-carboxamide] | – | 14.7
21 | O=C(Nc1cc(Cl)c(Oc2ccc3ncn(C4(C(F)F)CC4)c3c2)c(Cl)c1)c1noc(=O)[nH]1 [Example 55, N-(3,5-dichloro-4-((1-(1-(difluoromethyl)cyclopropyl)-1H-benzo[d]imidazol-6-yl)oxy)phenyl)-5-oxo-4,5-dihydro-1,2,4-oxadiazole-3-carboxamide] | – | 14.3
22 | N#Cc1nn(-c2cc(Cl)c(Oc3ccc4ncn(C5(C(F)F)CC5)c4c3)c(Cl)c2)c(=O)[nH]c1=O [Example 56, 2-(3,5-dichloro-4-((1-(1-(difluoromethyl)cyclopropyl)-1H-benzo[d]imidazol-6-yl)oxy)phenyl)-3,5-dioxo-2,3,4,5-tetrahydro-1,2,4-triazine-6-carbonitrile] | – | 9.0
23 | CCc1c[nH]c2ccc(Oc3c(Cl)cc(-n4nc(C#N)c(=O)[nH]c4=O)cc3Cl)cc12 [Example 59, 2-(3,5-dichloro-4-((3-ethyl-1H-indol-5-yl)oxy)phenyl)-3,5-dioxo-2,3,4,5-tetrahydro-1,2,4-triazine-6-carbonitrile] | – | 8.4
